Data set [1] deals with T1, human CETP (Homo sapiens, UniProt P11597).
T1 sequence (P11597 18-493): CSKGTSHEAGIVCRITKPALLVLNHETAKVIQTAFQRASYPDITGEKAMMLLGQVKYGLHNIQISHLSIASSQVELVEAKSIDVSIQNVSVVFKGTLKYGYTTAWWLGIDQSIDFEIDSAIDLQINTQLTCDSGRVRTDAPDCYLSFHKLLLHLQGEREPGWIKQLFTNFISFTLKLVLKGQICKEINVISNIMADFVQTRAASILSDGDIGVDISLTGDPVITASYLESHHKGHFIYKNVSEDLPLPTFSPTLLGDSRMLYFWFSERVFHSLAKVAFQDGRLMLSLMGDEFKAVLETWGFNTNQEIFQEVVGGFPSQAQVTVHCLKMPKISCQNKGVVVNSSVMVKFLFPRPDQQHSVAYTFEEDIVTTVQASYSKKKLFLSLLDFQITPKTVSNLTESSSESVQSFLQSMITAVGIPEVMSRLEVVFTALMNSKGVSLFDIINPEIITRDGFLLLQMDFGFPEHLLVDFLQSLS
The experiment in a line: Assay of cholesteryl ester transfer protein inhibitory activity, standard measurement system. Particulars: BODIPY-CE-ME donor, VLDL-LDL acceptor, reaction at 37° C. for 30 min. The class given is biochemical. The procedure: (§1) Assay of Cholesteryl Ester Transfer Protein Inhibitory Activity
(§2) Fresh rabbit serum was adjusted with KBr to the density of (1.063 g/ml), and the fractions (VLDL-LDL, density<1.063 g/ml) floated by ultra-centrifugation operation (SW41—Ti, 40,000 rpm, 18 hrs., 4° C., Beckman model L8-55) were collected, subjected to dialysis against 0.15 M NaCl-10 mM Tris-HCl, pH 7.4 (TBS), sterilized by filtration through a filter and preserved at 4° C.
(§3) A solution of BODIPY-CE (0.6 mg) in chloroform was added to egg PC (phosphatidylcholine) ([…]) and triolein (2 mg), and after dissolution, the lipid was air dried under a nitrogen gas reflux and the solvent was removed under high vacuum. To this lipid was added an apo HDL solution (7.5 ml) obtained by defatting human HDL (1.063<d<1.21) with chloroform-methanol (2:1, v/v), dissolving in 6 M urea-containing TBS and dialyzing against TBS, and the mixture was subjected to sonication (BRANSON SONIFIRE CELL DISRUPTOR 200, dial 6, 5 min×4) to give BOBIPY-CE-ME. After centrifugation (CENTRIPREP 10), it was sterilized by filtration through a filter and preserved at 4° C.
The test compound (20% DMSO solution, 5 μl), TS (75 μl), acceptor lipoprotein (VLDL-LDL, 20 μl) and partially purified human CETP (25 μl) were mixed and incubated at 37° C. for 30 min. BODIPY-CE-ME (25 μl) was added (total 150 μl) and a transfer reaction was started. After reaction at 37° C. for 30 min., fluorescence intensity was measured at Ex. 490 nm/Em. 530 nm. The CETP inhibitory activity (% inhibition) was calculated by the following formula. [formula] 4) 50% Human Plasma-Containing Measurement System
(§4) The IC50 value was determined as a concentration showing 50% inhibition by plotting the logarithm of the concentration of test compound and % inhibition.

Data set [2] addresses T1, human CETP. Description: Assay of cholesteryl ester transfer protein inhibitory activity, 50% human plasma-containing measurement system. The format is biochemical. Particulars: BODIPY-CE-ME donor, VLDL-LDL acceptor, reaction at 37° C. for 60 min. Here is the method: as §1, §2, §3
The test compound (20% DMSO solution, 5 μl), human plasma (75 μl), acceptor lipoprotein (VLDL-LDL, 20 μl) and partially purified human CETP (25 μl) were mixed and incubated at 37° C. for 30 min. BODIPY-CE-ME (25 μl) was added (total 150 μl) and a transfer reaction was started. After reaction at 37° C. for 60 min., fluorescence intensity was measured at Ex. 490 nm/Em. 530 nm. The CETP inhibitory activity (% inhibition) was calculated by the following formula. [formula]
as §4

As usually defined, the IC50 is the concentration that inhibits the measured activity by half. For orientation: melting point means the temperature, or range, at which the solid turns liquid. Consider `O=C(N[C@H](Cc1ccc(C(F)(F)F)cc1)[C@@H](O)c1ccc(F)cc1)c1ccc(F)c2ccccc12` (racemic) [Example 30, 4-fluoro-N-((1RS,2SR)-2-(4-fluorophenyl)-2-hydroxy-1-((4-(trifluoromethyl)phenyl)methyl)ethyl)-1-naphthalenecarboxamide], for which the melting point was in the range of 210 to 211 °C. Half-maximal inhibition against human CETP [1] (IC50) required 0.3 µM. Besides, the midpoint of inhibition against human CETP [2], the IC50, lay at 2.5 µM.

The values above are taken from patent US6982348B2, “Aminoethanol derivatives” (Takeda Pharmaceutical Company Limited, priority 2001, dated 2006).
